Experimental data: patent US20130330754A1, “SOL-GEL DERIVED SENSOR FOR RAPID DETERMINATION OF HEAVY METALS” (priority 2012, published 2013)

Legend:
β-galactosidase (B-GAL) [1] = molecular target: T1, β-galactosidase (B-GAL) (Escherichia coli, UniProt P00722); details: EDTA 10 mM; Hg(II), Ag(I) ~2.7 ppm each, other metals ~8 ppm each
β-galactosidase (B-GAL) [2] = molecular target: T1, β-galactosidase (B-GAL); experiment: B-GAL inhibition by heavy metals on bioactive paper sensor (CPRG colour intensity); type: biochemical, E. coli; details: for IC50 values (concentration to obtain 50% inhibition of B-GAL) / limits of detection (LODs): paper sensor, 10 min incubation with metal; for limits of detection (LODs): B-GAL/CPRG assay; for inhibition of B-GAL: single metal
Source text: The sensors were constructed based on an enzyme, B-GAL vs. substrate, CPRG system with three design strategies: a one-dimensional strategy and two flower shape strategies. In the one-dimensional strategy, a section of Whatman #1 paper was cut into small pieces (0.5×8 cm) on which B-GAL and CPRG were entrapped using sol-gel derived sol gel materials into two different zones (e.g., enzyme or sensing and substrate zones). To prevent leaching the color, a hydrophobic barrier was also introduced on the top (FIG. 1b) of the sensing zone(s) using either wax (by wax printer, Xerox Phaser 8560N) or methyltrimethoxysilane (MTMS) (via piezoelectric inkjet printing).
The sensing zones for all cases were incubated with a drop of contaminated sample for 10 min. The bottom of the paper sensor (FIG. 1b, c) was placed into water while a few drops of water were put at the middle of the sensor (FIG. 1d) for lateral flow chromatography. The color intensity was monitored after 5 min air drying at room temperature. The inkjet printing was done as described elsewhere.^31, 32 After printing, the sensor was allowed to dry for at least 1 h in air at room temperature.
The inhibitory effects of these metals on the solid-phase biosensor were evaluated by measuring the decrease in the color intensity produced by the enzyme-substrate reaction. The sensing region of the paper sensor was first incubated with various concentrations of heavy metals (5 μL) for 10 min after which the paper sensor was allowed for lateral flow chronographic system. The images were taken after 5-10 min air drying at room temperature.
The color intensity of the sensing areas was monitored either by the naked eye, by obtaining a digital image (Canon G11 12 MegaPixel camera operated in automatic mode with no flash and with the macroimaging setting on) or by using an office scanner, with ImageJ™ software being used to analyze the Jpeg images in the latter two cases. The numerical single color coordinates values were obtained using the ImageJ™ color split channel system. All data points represent the average of four replicate experiments and the error bars represent the standard deviations (s.d.) of those points.

β-galactosidase (B-GAL) [3] = molecular target: T1, β-galactosidase (B-GAL)
Method: The sensor was incubated with a 5 μL sample for 10 min (a separate paper sensor was made for each concentration) and the B-GAL inhibition tested as outlined above.

T1 sequence (P00722 2-1024): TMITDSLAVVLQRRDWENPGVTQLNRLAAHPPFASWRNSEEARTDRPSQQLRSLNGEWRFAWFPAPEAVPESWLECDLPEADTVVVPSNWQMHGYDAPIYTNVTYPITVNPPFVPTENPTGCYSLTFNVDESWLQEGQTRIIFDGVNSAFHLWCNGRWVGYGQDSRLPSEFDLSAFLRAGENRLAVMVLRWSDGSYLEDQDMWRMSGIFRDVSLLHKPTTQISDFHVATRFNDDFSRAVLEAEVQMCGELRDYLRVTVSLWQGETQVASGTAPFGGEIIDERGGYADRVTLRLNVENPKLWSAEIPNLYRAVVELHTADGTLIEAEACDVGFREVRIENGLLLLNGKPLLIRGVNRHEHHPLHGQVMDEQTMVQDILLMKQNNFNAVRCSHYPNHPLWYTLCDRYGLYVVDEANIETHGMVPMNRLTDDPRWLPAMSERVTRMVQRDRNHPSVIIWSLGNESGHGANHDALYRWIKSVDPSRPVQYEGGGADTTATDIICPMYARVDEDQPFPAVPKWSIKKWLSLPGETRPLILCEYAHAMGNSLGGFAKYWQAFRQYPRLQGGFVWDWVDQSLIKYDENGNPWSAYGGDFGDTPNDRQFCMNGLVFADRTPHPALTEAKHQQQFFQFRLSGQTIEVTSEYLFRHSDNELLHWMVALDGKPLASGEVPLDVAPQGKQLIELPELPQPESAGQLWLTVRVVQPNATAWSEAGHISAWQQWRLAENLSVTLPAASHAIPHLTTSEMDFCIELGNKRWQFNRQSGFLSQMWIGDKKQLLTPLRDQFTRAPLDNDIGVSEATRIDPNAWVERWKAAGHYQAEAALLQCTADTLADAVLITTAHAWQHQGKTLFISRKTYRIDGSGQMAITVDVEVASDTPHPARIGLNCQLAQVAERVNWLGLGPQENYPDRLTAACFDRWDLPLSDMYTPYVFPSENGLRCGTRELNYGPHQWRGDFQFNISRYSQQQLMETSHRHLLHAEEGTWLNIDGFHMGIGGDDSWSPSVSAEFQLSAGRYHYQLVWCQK

Molecule | inhibition of B-GAL after inclusion of EDTA (β-galactosidase (B-GAL) [1]) | IC50 values (concentration to obtain 50% inhibition of B-GAL) (β-galactosidase (B-GAL) [2]) [ppm] | limits of detection (LODs) (β-galactosidase (B-GAL) [2]) [ppm] | inhibition of B-GAL (β-galactosidase (B-GAL) [2]; 3 μM) [%] | inhibition of B-GAL (β-galactosidase (B-GAL) [2]; 0.1 μM) | limit of detection (β-galactosidase (B-GAL) [3]; Hg^2+ mixed with NaCl (10 μM)) [µM] | IC50 (β-galactosidase (B-GAL) [3]; read-out: IC50 value, Hg^2+ mixed with NaCl (10 μM)) [nM] | effect of nontoxic metal ion on response vs. concentration of Hg^2+ and limit of detection (β-galactosidase (B-GAL) [3]; NaCl 10 μM, KCl 100 ppm)
O=S(=O)([O-])[O-].[Cu+2] [Cu(II), CuSO4] | completely removed the inhibition | 0.70 | ~0.020 | 23 |  |  |  | 
O=[N+]([O-])[O-].[Ag+] [Ag(I), AgNO3] | retaining the inhibition | 0.05 | ~0.002 |  | about 35% |  |  | 
[Cl][Hg][Cl] [Hg(II), HgCl2] | completely removed the inhibition | 0.03 |  |  | 42% | ~0.01 | 120 | 
Cr(VI) | retaining the inhibition | 1.49 | ~0.150 |  |  |  |  | 
[Pb+2] [Pb(II)] | completely removed the inhibition | 1.40 | ~0.140 |  |  |  |  | 
[Cl][Cd][Cl] [Cd(II), CdCl2] | completely removed the inhibition | 1.14 | ~0.020 |  |  |  |  | 
[Cl-].[Na+] [NaCl] |  |  |  |  |  |  |  | negligible effect
[Ni+2] [Ni(II)] | completely removed the inhibition | 1.80 | ~0.230 |  |  |  |  | 
